According to patent publication US20050014144A1, “Methods” (priority 2001, published 2005):

How the values were obtained:
[1] = test system: P. viticola cytochrome b gene F129 and L129 alleles; experiment: ARMS/Scorpion F129L SNP detection assay (Ct of allele selective primers on plasmid DNA templates); design: species or system Plasmopara viticola
Method: In all ARMS/Scorpion F129L SNP detection assays AmpliTaq Gold enzyme (Applied Biosystems) is included in the reaction mixes at 1 unit/25 ul reaction. The reaction mix also contains 1× buffer (10 mM Tris-HCl (pH8.3), 50 mM KCl, 3.5 mM MgCl2, 0.01% gelatine) and 100 uM dNTP's (Amersham Pharmacia Biotech). Amplifications are performed in an ABI 7700 instrument for continuous fluorescence monitoring. The cycling conditions comprise a preliminary cycle of 95° C. for 10 minutes, followed by 50 cycles of 95° C. for 15 seconds and 60° C. for 45 seconds. Fluorescence is monitored during the annealing/extension stage throughout all cycles.
The ARMS primers are validated for use in such analyses by using plasmid DNA, at various concentrations as template. This is performed in order to check the specificity and sensitivity of the primer designs. Partial wild type cytochrome b gene sequence and the corresponding tract containing the F129L mutation amplified from two P. viticola samples has been cloned into the TA pCR2.1 vector (Invitrogen) as described previously in example 11. 150 ul of the bacterial culture, from the 10 transformants from each cloning event picked for Qiagen Biorobot plasmid DNA Preparations (Qiazen) (see example 11), was saved prior to carrying out these preparations and stored at 4° C. Following sequence analysis wild type and mutant plasmid DNA samples that contained no sequence differences from the consensus sequence were noted. The bacterial culture from which these wild type and mutant plasmid DNA sequences originated was picked for plasmid DNA maxipreps (Qiagen) following the manufacturers protocol. The resulting plasmid DNA was quantified and diluted to a concentration of 1 ug/ul (2×10^11 molecules/ul) using sterile double distilled H2O.
The wild type and mutant cyt b plasmid DNA constructs were diluted further to a concentration of 10 pg/ul (or 2×10^6 molecules/ul) in double distilled H2O and used as template to validate the specificity of the ARMS primers. […]

Plasmopara viticola = experiment: in planta dose response bioassay with azoxystrobin on vine seedlings (EC50, EC95); format: in vivo; settings: for EC95: vine seedlings, azoxystrobin rates in ppm (Table 31)
Method: The in planta dose response bioassay was performed on 10 to 14 days old vine seedlings grown in 1.5″ pots. Six rates of azoxystrobin were chosen from preparatory tests, as the most suitable for showing any shifts in sensitivity to azoxystrobin in the dose response bioassay (Table 31).
The azoxystrobin preparation used for all the tests was P53, a technical grade powder with a purity of >97% azoxystrobin. This was kept consistent across all the tests to eliminate any variation caused by differences in chemical purity or physical state. Five seedlings were used per azoxystrobin rate per sample, and 10 seedlings were used for the no azoxystrobin control (sprayed with de-ionised water only).
The chemical was sprayed, with a Devilbiss spray gun at 10 psi, to maximum retention onto the adaxial surface of the 2nd true leaf (test leaf) of each seedling, with care being taken to continuously swirl the solution in the spray gun to prevent local fluctuations in azoxystrobin concentration: The seedlings were then carefully placed in a growth room (Day: 24° C., 60% RH, 4-5000 lux; Night: 17° C., 95% RH; Day length: 16 hours) for 24 hours.
After this time each test leaf was inoculated with the samples I112 and I116b. Both samples had passed through 1 cycle of subculture on 3″ vines since being removed from low temperature storage (FIG. 14). The inoculum from each sample, obtained from the 3″ vines, was diluted to 5,000 sporangia per ml using a dry haemocytometer (Improved Neubayer, depth 0.1 mm, 1/400 mm^2, Hawksley Crystallite, BS 748).
The samples were inoculated, with a Devilbiss spray gun at 10 psi, to maximum retention onto the abaxial surface of the test leaf of each seedling, with the suspension being swirled frequently in the spray gun to keep sporangia from accumulating at the bottom. The test seedlings were incubated in an ambient room for twenty-four hours. The seedlings were then randomised and placed in a growth room (Day: 24° C., 60% RH, 4-5000 lux; Night: 17° C., 95% RH; Day length: 16 hours) for 6 days, before being returned to the ambient room for a further 24 hours to stimulate sporulation.
The seedlings were assessed directly after their removal from the ambient room for the second time. Disease assessment was based on the percentage area of the leaf covered by sporulating lesions and discolouration, and recorded in 5% increments. […] The data was then analysed using the statistical program AGSTAT.

Pythium aphanidermatum = experiment: Azoxystrobin sensitivity of P. aphanidermatum isolates on treated perennial ryegrass turf (percent infected turf area); format: in vivo
Method: To enable an assessment of axoxystrobin (strobilurin) resistance of the above isolates, perennial ryegrass (Lolium perenne L.) was grown in 4×4 inch square plastic pots containing sandy soil. Agsorb absorbent clay (extra fine red) was used to anchor the seeds and provide a high level of moisture around the seed to aid germination. The pots were watered using a fog nozzle and covered with paper to reduce evaporation. A fog nozzle was used 3-5 times a day to water the turf pots. When seedlings emerged, the paper cover was removed from the pots to prevent etiolation and watering was reduced to twice daily using a fan nozzle. The pots were maintained for 12-16 days in a glass-house (17-32° C.; 14 h photoperiod) prior to treatment. During this time, the turf was cut twice with electric Black and Decker hand-held clippers.
Pythium aphanidermatum cultures of the isolates summarized in FIG. 1 were maintained on potato dextrose agar (PDA) amended with streptomycin sulfate at 0.05 g/L. Organically grown rye grains (50 g) were hydrated overnight with 40 ml deionized water placed in 250 ml plastic (polyvinyl-chloride) flasks. The flasks were autoclaved twice on successive days for 45 minutes each time. After the berries cooled, ten 1×1 cm agar plugs of P. aphanidermatum were added to each flask. Flasks containing infected rye-berries were incubated in a growth chamber (26° C.; 14 h photoperiod) for seven days to allow the fungi to colonize the rye grains. The fungal-colonized rye grains were then used to inoculate the turf; by placing four berries on the center surface of each pot.
Azoxystrobin treatments were applied in an automated spray cabinet using a flat fan nozzle (8004E) positioned 18 inches over the turf with a spray volume of 3 US gal/1000 sq.ft. To prevent carry over from treatment to treatment, applications were made starting with the lowest concentration and ending with the highest concentration. The spray nozzle was washed once with acetone and twice with deionized water (100 ml/rinse) between treatments. Turf was sprayed with Heritage® (azoxystrobin) at rates of 0.4, 0.133, 0.044, 0.015, 0.005 and 0 oz.Heritage/1000 sq.ft. Following application, the turf was allowed to dry and was transferred to a growth chamber (25-28° C.; 14 h photoperiod) overnight.
Turf was inoculated with fungal-colonized rye-berries one day after application as previously described. All treatments were then randomized and placed in a dew chamber (25-28° C.; 14 h photoperiod) for four days. The turf was moved to a growth room 24 h prior to disease assessment. The percent of Pythium-infected turf area in each pot was assessed five days after inoculation With the exception of isolate 99-150, all the isolates of P. aphanidermatum were sensitive to azoxystrobin (Table1). […] This is the first report of resistance to azoxystrobin of an isolate of the plant pathogenic fungus P. aphanidermatum.
The sensitivity of the resistant isolate 99-150 and sensitive isolate P32R was then confirmed by testing in two separate experiments using rates up to nine times higher than the recommended commercial rate of Heritage® (azoxystrobin): 3.6, 1.2, 0.4, 0.133, 0.044, 0.015, 0.005 and 0 oz/1000 sq.ft.

Compound | Mut Ct ([1]; mutant (L129) plasmid template, 2×10^6 molecules/ul) | NTC amplification ([1]; no template (water only) control) | Wt Ct ([1]; wild type (F129) plasmid template, 2×10^6 molecules/ul) | EC95 (Plasmopara viticola; P. viticola K2075 (sensitive baseline isolate)) | EC95 (Plasmopara viticola; P. viticola isolate 00I112) | EC95 (Plasmopara viticola; P. viticola isolate 00I116B) | sensitivity to azoxystrobin in the in planta dose response bioassay (Plasmopara viticola; P. viticola sample I112, compared with the sensitive baseline isolate) | sensitivity to azoxystrobin in the in planta dose response bioassay (Plasmopara viticola; P. viticola sample I116B, compared with the sensitive baseline isolate) | sensitivity of isolate to azoxystrobin (percent of Pythium-infected turf area) (Pythium aphanidermatum; P. aphanidermatum isolate 99-150, Heritage 0.005-0.4 oz/1000 sq.ft on turf, assessed five days after inoculation) | sensitivity of isolates to azoxystrobin (percent of Pythium-infected turf area) (Pythium aphanidermatum; all P. aphanidermatum isolates except 99-150, Heritage 0.005-0.4 oz/1000 sq.ft on turf, assessed five days after inoculation) | response of isolate to azoxystrobin (percentage of infected turf) (Pythium aphanidermatum; resistant isolate 99-150, rates up to nine times the recommended commercial rate of Heritage (3.6 oz/1000 sq.ft)) | ED80 values of the sensitive isolates (Pythium aphanidermatum; sensitive P. aphanidermatum isolates, compared with the established baseline distribution) | percentage of infected turf (Pythium aphanidermatum; sensitive isolate P32R, highest rate of Heritage (3.6 oz/1000 sq.ft))
Pv129S (DNA GTCCCCAAGGCAAAACATAACCCAT; chemistry not given here) | 17.22 | None | 17.0 | – | – | – | – | – | – | – | – | – | –
CO/C=C(/C(=O)OC)c1ccccc1Oc1cc(Oc2ccccc2C#N)ncn1 [azoxystrobin] | – | – | – | 0.51 | 11.75 | 2.84 | reduced sensitivity | reduced sensitivity | resistant | sensitive | did not respond | within the range of ED80 values of the baseline distribution | reduced dramatically
